The record followed here is US9980986B2, “Methods of producing pancreatic hormones” (ViaCyte, Inc., priority 2006, dated 2018).

Experiment [1] has as its system activin receptor-like (ALK) receptor. The experiment in a line: TGF-beta receptor family inhibitor added to cell cultures at stage 2 of differentiation. Type of experiment: cell-based, human. Particulars: about 2.5, 5 and 10 μM added to the cell cultures at stage 2. The text has this: The differentiation culture conditions were substantially similar to that described in d'Amour et al. 2006. d'Amour et al. 2006 describe a 5 step differentiation protocol: stage 1 (definitive endoderm; d 1-d 4), stage 2 (primitive gut tube or foregut endoderm; d 5 to d 8), stage 3 (posterior foregut or Pdx1 endoderm; d 9 to d 12), stage 4 (pancreatic endoderm, or pancreatic epithelium and endocrine precursor; d 13 to d 15) and stage 5 (hormone expressing endocrine cell, d 16 or more). As in d'Amour et al. 2006, the undifferentiated cells were cultured for one day (d 1) in RPMI containing 100 ng/ml Activin A (R&D Systems) and 25 ng/ml recombinant human WNT3a (R&D Systems), two days (d 2 and d 3) in RPMI medium containing 0.2% fetal bovine serum (FBS, Specialty Media) and 100 ng/ml Activin A. The embodiments described herein were slightly modified beginning at day 3 (d 3). The cells from day 3 (definitive endoderm) were cultured for three days (d 4 to d 6; foregut endoderm) in RPMI medium containing 2% FBS, 50 ng/ml recombinant human KGF/FGF7 (R&D Systems), and 0.25 μM KAAD-cyclopamine (Toronto Research Chemicals). Activin is removed from cells at this stage. […]

Experiment [2] has as its system Human embryonic stem cell lines. The experiment in a line: hESC differentiation by 6-step 15-day protocol with or without Wnt3a in step 1, real-time quantitative PCR. Type of experiment: cell-based. As to conditions: Wnt3a 25 ng/mL added during the first step. As for the experimental part:
Human embryonic stem cell lines were also differentiated for 15 days via a 6-step protocol to achieve islet hormone-expressing cells. The first step comprised 3 days differentiation with either; i) activin A (100 ng/ml) or ii) activin A (100 ng/ml) and Wnt3a (25 ng/mL) to robustly produce DE (D'Amour, K., et al., Nature Biotechnology 23, 1534-1541, (2005)). Step 2 comprised 3 days differentiation in RPMI with 2% FBS containing FGF10 (50 ng/mL) and KAAD-cyclopamine (0.5 μM). Step 3 comprised 2 days differentiation in CMRL with B27 supplement (1:100) containing FGF10 (50 ng/mL), KAAD-cyclopamine (0.5 μM) and retinoic acid (2 μM). Step 4 comprised 2 days differentiation in CMRL with B27 supplement (1:100) containing retinoic acid (2 μM) and DAPT (1 μM). Step 5 comprised 2 days differentiation in CMRL with B27 supplement (1:100) containing DAPT (1 μM) and exendin 4 (40 ng/mL). Step 6 comprised 3 days differentiation in CMRL with B27 supplement (1:100) containing exendin 4 (40 ng/mL). Duplicate samples were taken from each plate at multiple time points and gene expression was analyzed by real-time quantitative PCR.

With `NC(=O)c1ccc(-c2nc(-c3ccc4c(c3)OCO4)c(-c3ccccn3)[nH]2)cc1` [SB-431542], the “Effect on cell differentiation” value in experiment [1] is “potentiated cell differentiation”.

B1: Wnt3a: wingless-type MMTV integration site family member 3A (protein, UniProt P56704 19-352, looked up)
Protein Wnt-3a: SYPIWWSLAVGPQYSSLGSQPILCASIPGLVPKQLRFCRNYVEIMPSVAEGIKIGIQECQHQFRGRRWNCTTVHDSLAIFGPVLDKATRESAFVHAIASAGVAFAVTRSCAEGTAAICGCSSRHQGSPGKGWKWGGCSEDIEFGGMVSREFADARENRPDARSAMNRHNNEAGRQAIASHMHLKCKCHGLSGSCEVKTCWWSQPDFRAIGDFLKDKYDSASEMVVEKHRESRGWVETLRPRYTYFKVPTERDLVYYEASPNFCEPNPETGSFGTRDRTCNVSSHGIDGCDLLCCGRGHNARAERRREKCRCVFHWCCYVSCQECTRVYDVHTCK
Take B1: the “Effect on endocrine cell differentiation” value in experiment [2] is “marked enhancement of endocrine cell differentiation”.
